Numbered stars: 1 amine (or outer) side, 2 acyl side, 3 side chain; on linkers, the order of the positions; unused ones are H or OH. Bridge positions count the residues as written; N and C are the ends. Peptide text beside a SMILES is read from it. I, II: the chains in the order shown. X2 = c1ccc([Si](O[*:1])(O[*:2])c2ccccc2)cc1; X1 = C[Si](C)(O[*:1])O[*:2]
Tests used:
[1] = system: Adenokarzinome; assay: Effect on adenocarcinomas
[2] = system: Adenokarzinom-Gewebe; assay: Effect against adenocarcinoma tissue, inhibition of metastasis
[3] = system: Osteosarkom bzw. Adenokarzinome; assay: Effect in mice on osteosarcoma or adenocarcinoma; design: species or system Mäuse; conditions: in vivo
[4] = system: Medulloblastom-Zellen; assay: Inhibition of cell multiplication; format: cell-based
[5] = system: Zellen des Basatzellkarzinoms; assay: Inhibition of cell multiplication; format: cell-based
[6] = system: Angiosarkome; assay: Effect on angiosarcomas
[7] = system: Basalzellkarzinome; assay: Effect on basal cell carcinomas
[8] = system: Hepatitis B-Viren; assay: Antiviral effect; conditions: in particular as vesicles holding antisense constructs
[9] = system: Sendai-Viren; assay: Antiviral effect; conditions: in particular as vesicles holding antisense constructs
[10] = system: Medulloblastome; assay: Effect on medulloblastomas
[11] = system: Entero-Viren; assay: Antiviral effect; conditions: in particular as vesicles holding antisense constructs
[12] = system: Seminome; assay: Effect on seminomas
[13] = system: Hepatitis C-Viren; assay: Antiviral effect; conditions: in particular as vesicles holding antisense constructs
[14] = system: Lymphome; assay: Effect on lymphomas
[15] = system: Hepatitis-Viren; assay: Antiviral effect; conditions: in particular as vesicles holding antisense constructs

## CC(C)[C@H](N)C(=O)N[C@H](C(=O)N[C@H](C(=O)N[C@H](C(=O)O[Si](C)(C)OC(=O)[C@@H](NC(=O)[C@@H](NC(=O)[C@@H](NC(=O)[C@@H](N)C(C)C)C(C)C)C(C)C)C(C)C)C(C)C)C(C)C)C(C)C [Dimethyl bis(tetravalyl)silylester]
[1]
  Wirkung auf Adenokarzinome: zeigen eine Wirkung

## CCCCCCCCCCCC(=O)O[Si](OC(=O)CCCCCCCCCCC)(C(C)C)C(C)C [Di(dodecanoyloxy)diisopropylsilan]
[2]
  Wirkung gegen Adenokarzinom-Gewebe, insbesondere inhibierende Wirkung auf die Metastasierung: haben eine Wirkung

## C[C@H](N)C(=O)N[C@@H](C)C(=O)N[C@@H](C)C(=O)O[Si](C)(C)OC(=O)[C@H](C)NC(=O)[C@H](C)NC(=O)[C@H](C)N [Dimethyl bis(trialanyl)sillylester]
[3]
  Wirkung auf Mäuse, Osteosarkom bzw. Adenokarzinome: zeigen eine Wirkung
[4]
  Vermehrung von Medulloblastom-Zellen: inhibieren
[5]
  Vermehrung von Zellen des Basatzellkarzinoms: inhibieren

## CCCCCCCCCCCCC(=O)O[Si](OC(=O)CCCCCCCCCCCC)(C(C)C)C(C)C [Di(tridecanoyloxy)diisopropylsilan]
[2]
  Wirkung gegen Adenokarzinom-Gewebe, insbesondere inhibierende Wirkung auf die Metastasierung: haben eine Wirkung

## CCCCCCCCCCCCCC(=O)O[Si](OC(=O)CCCCCCCCCCCCC)(C(C)C)C(C)C [Di(tetradecanoyloxy)diisopropylsilan]
[2]
  Wirkung gegen Adenokarzinom-Gewebe, insbesondere inhibierende Wirkung auf die Metastasierung: haben eine Wirkung

## CCCCCCCC(=O)O[Si](OC(=O)CCCCCCC)(C(C)C)C(C)C [Di(octanoyloxy)diisopropylsilan]
[6]
  Wirkung gegen Angiosarkome: zeigen eine Wirkung
[7]
  Wirkung auf Basalzellkarzinome: zeigen eine Wirkung
[8]
  Wirkung gegen Hepatitis B-Viren: zeigen eine Wirkung
[9]
  Wirkung gegen Sendai-Viren: zeigen eine Wirkung

## C[C@H](N)C(=O)N[C@@H](C)C(=O)N[C@@H](C)C(=O)N[C@@H](C)C(=O)N[C@@H](C)C(=O)O[Si](C)(C)OC(=O)[C@H](C)NC(=O)[C@H](C)NC(=O)[C@H](C)NC(=O)[C@H](C)NC(=O)[C@H](C)N [Dimethyl bis(pentaalanyl)silylester]
[3]
  Wirkung auf Mäuse, Osteosarkom bzw. Adenokarzinome: zeigen eine Wirkung
[4]
  Vermehrung von Medulloblastom-Zellen: inhibieren
[5]
  Vermehrung von Zellen des Basatzellkarzinoms: inhibieren

## C[Si](C)(OC(=O)CNC(=O)CNC(=O)CNC(=O)CNC(=O)CN)OC(=O)CNC(=O)CNC(=O)CNC(=O)CNC(=O)CN [Dimethyl bis(pentaglycyl)silylester]
[10]
  Wirkung gegen Medulloblastome: zeigen eine Wirkung
[11]
  Wirkung gegen Entero-Viren: zeigen eine Wirkung

## CCCCCCCCCCCCCCCC(=O)O[Si](OC(=O)CCCCCCCCCCCCCCC)(C(C)C)C(C)C [Di(hexadecanoyloxy)diisopropylsilan]
[2]
  Wirkung gegen Adenokarzinom-Gewebe, insbesondere inhibierende Wirkung auf die Metastasierung: haben eine Wirkung

## C[Si](C)(OC(=O)CNC(=O)CNC(=O)CN)OC(=O)CNC(=O)CNC(=O)CN [Dimethyl bis(triglycyl)silylester]
[10]
  Wirkung gegen Medulloblastome: zeigen eine Wirkung
[11]
  Wirkung gegen Entero-Viren: zeigen eine Wirkung

## CC(C)[C@H](N)C(=O)N[C@H](C(=O)N[C@H](C(=O)N[C@H](C(=O)N[C@H](C(=O)N[C@H](C(=O)N[C@H](C(=O)N[C@H](C(=O)O[Si](C)(C)OC(=O)[C@@H](NC(=O)[C@@H](NC(=O)[C@@H](NC(=O)[C@@H](NC(=O)[C@@H](NC(=O)[C@@H](NC(=O)[C@@H](NC(=O)[C@@H](N)C(C)C)C(C)C)C(C)C)C(C)C)C(C)C)C(C)C)C(C)C)C(C)C)C(C)C)C(C)C)C(C)C)C(C)C)C(C)C)C(C)C)C(C)C [Dimethyl bis(octavalyl)silylester] (I: H-VVVVVVVV / II: H-VVVVVVVV; linker I:C-II:C via X1)
[1]
  Wirkung auf Adenokarzinome: zeigen eine Wirkung

## C[C@H](N)C(=O)N[C@@H](C)C(=O)N[C@@H](C)C(=O)N[C@@H](C)C(=O)N[C@@H](C)C(=O)N[C@@H](C)C(=O)N[C@@H](C)C(=O)N[C@@H](C)C(=O)O[Si](C)(C)OC(=O)[C@H](C)NC(=O)[C@H](C)NC(=O)[C@H](C)NC(=O)[C@H](C)NC(=O)[C@H](C)NC(=O)[C@H](C)NC(=O)[C@H](C)NC(=O)[C@H](C)N [Dimethyl bis(octaalanyl)silylester] (I: H-AAAAAAAA / II: H-AAAAAAAA; linker I:C-II:C via X1)
[3]
  Wirkung auf Mäuse, Osteosarkom bzw. Adenokarzinome: zeigen eine Wirkung
[4]
  Vermehrung von Medulloblastom-Zellen: inhibieren
[5]
  Vermehrung von Zellen des Basatzellkarzinoms: inhibieren

## CC/C=C\C/C=C\C/C=C\CCCCCCCC(=O)O[Si](CC)(CC)OC(=O)CCCCCCC/C=C\C/C=C\C/C=C\CC [Di(linolenoylooxy)diethylsilan]
[12]
  Wirkung auf Seminome: zeigen eine Wirkung
[13]
  Wirkung gegen Hepatitis C-Viren: zeigen eine Wirkung

## C[C@H](N)C(=O)N[C@@H](C)C(=O)N[C@@H](C)C(=O)N[C@@H](C)C(=O)N[C@@H](C)C(=O)N[C@@H](C)C(=O)N[C@@H](C)C(=O)O[Si](OC(=O)[C@H](C)NC(=O)[C@H](C)NC(=O)[C@H](C)NC(=O)[C@H](C)NC(=O)[C@H](C)NC(=O)[C@H](C)NC(=O)[C@H](C)N)(c1ccccc1)c1ccccc1 [Diphenyl bis(heptaalanyl)silylester] (I: H-AAAAAAA / II: H-AAAAAAA; linker I:C-II:C via X2)
[14]
  Wirkung auf Lymphome: zeigen eine Wirkung
[15]
  Wirkung gegen Hepatitis-Viren: zeigen eine Wirkung

## CCCCCCCCCCCCCCC(=O)O[Si](OC(=O)CCCCCCCCCCCCCC)(C(C)C)C(C)C [Di(pentadecanoyloxydiisopropylsilan]
[2]
  Wirkung gegen Adenokarzinom-Gewebe, insbesondere inhibierende Wirkung auf die Metastasierung: haben eine Wirkung

## C[C@H](N)C(=O)N[C@@H](C)C(=O)N[C@@H](C)C(=O)N[C@@H](C)C(=O)N[C@@H](C)C(=O)N[C@@H](C)C(=O)N[C@@H](C)C(=O)N[C@@H](C)C(=O)N[C@@H](C)C(=O)O[Si](OC(=O)[C@H](C)NC(=O)[C@H](C)NC(=O)[C@H](C)NC(=O)[C@H](C)NC(=O)[C@H](C)NC(=O)[C@H](C)NC(=O)[C@H](C)NC(=O)[C@H](C)NC(=O)[C@H](C)N)(c1ccccc1)c1ccccc1 [Diphenyl bis(nonaalanyl)silylester] (I: H-AAAAAAAAA / II: H-AAAAAAAAA; linker I:C-II:C via X2)
[14]
  Wirkung auf Lymphome: zeigen eine Wirkung
[15]
  Wirkung gegen Hepatitis-Viren: zeigen eine Wirkung

## CCCCCCCCCCCCCCCC(=O)O[Si](CCC)(CCC)OC(=O)CCCCCCCCCCCCCCC [Di(hexadecanoyloxy)dipropylsilan]
[6]
  Wirkung gegen Angiosarkome: zeigen eine Wirkung
[7]
  Wirkung auf Basalzellkarzinome: zeigen eine Wirkung
[8]
  Wirkung gegen Hepatitis B-Viren: zeigen eine Wirkung
[9]
  Wirkung gegen Sendai-Viren: zeigen eine Wirkung

## CC(C)[C@H](N)C(=O)N[C@H](C(=O)N[C@H](C(=O)O[Si](C)(C)OC(=O)[C@@H](NC(=O)[C@@H](NC(=O)[C@@H](N)C(C)C)C(C)C)C(C)C)C(C)C)C(C)C [Dimethyl bis(trivalyl)silylester]
[1]
  Wirkung auf Adenokarzinome: zeigen eine Wirkung

## CCCCCCCC/C=C\CCCCCCCC(=O)O[Si](CC)(CC)OC(=O)CCCCCCC/C=C\CCCCCCCC [Di (oleylooxy)diethylsilan]
[12]
  Wirkung auf Seminome: zeigen eine Wirkung
[13]
  Wirkung gegen Hepatitis C-Viren: zeigen eine Wirkung

## CC(C)[C@H](N)C(=O)N[C@H](C(=O)N[C@H](C(=O)N[C@H](C(=O)N[C@H](C(=O)O[Si](C)(C)OC(=O)[C@@H](NC(=O)[C@@H](NC(=O)[C@@H](NC(=O)[C@@H](NC(=O)[C@@H](N)C(C)C)C(C)C)C(C)C)C(C)C)C(C)C)C(C)C)C(C)C)C(C)C)C(C)C [Dimethyl bis(pentavalyl)silylester]
[1]
  Wirkung auf Adenokarzinome: zeigen eine Wirkung

## CC/C=C\C/C=C\C/C=C\CCCCCCCC(=O)O[Si](CCC)(CCC)OC(=O)CCCCCCC/C=C\C/C=C\C/C=C\CC [Di(linolenoylooxy)dipropylsilan]
[12]
  Wirkung auf Seminome: zeigen eine Wirkung
[13]
  Wirkung gegen Hepatitis C-Viren: zeigen eine Wirkung

## CCCCCCCCCCCCCCCCCC(=O)O[Si](CCC)(CCC)OC(=O)CCCCCCCCCCCCCCCCC [Di(octadecanoyloxy)dipropylsilan]
[6]
  Wirkung gegen Angiosarkome: zeigen eine Wirkung
[7]
  Wirkung auf Basalzellkarzinome: zeigen eine Wirkung
[8]
  Wirkung gegen Hepatitis B-Viren: zeigen eine Wirkung
[9]
  Wirkung gegen Sendai-Viren: zeigen eine Wirkung

## CCCCCCCCCCCCCCCCC(=O)O[Si](CCC)(CCC)OC(=O)CCCCCCCCCCCCCCCC [Di(heptadecanoyloxy)dipropylsilan]
[6]
  Wirkung gegen Angiosarkome: zeigen eine Wirkung
[7]
  Wirkung auf Basalzellkarzinome: zeigen eine Wirkung
[8]
  Wirkung gegen Hepatitis B-Viren: zeigen eine Wirkung
[9]
  Wirkung gegen Sendai-Viren: zeigen eine Wirkung

## C[C@H](N)C(=O)N[C@@H](C)C(=O)N[C@@H](C)C(=O)N[C@@H](C)C(=O)O[Si](C)(C)OC(=O)[C@H](C)NC(=O)[C@H](C)NC(=O)[C@H](C)NC(=O)[C@H](C)N [Dimethyl bis(tetraalanyl)silylester]
[3]
  Wirkung auf Mäuse, Osteosarkom bzw. Adenokarzinome: zeigen eine Wirkung
[4]
  Vermehrung von Medulloblastom-Zellen: inhibieren
[5]
  Vermehrung von Zellen des Basatzellkarzinoms: inhibieren

## CCCCC/C=C\C/C=C\CCCCCCCC(=O)O[Si](CCC)(CCC)OC(=O)CCCCCCC/C=C\C/C=C\CCCCC [Di(linoylooxy)dipropylsilan]
[12]
  Wirkung auf Seminome: zeigen eine Wirkung
[13]
  Wirkung gegen Hepatitis C-Viren: zeigen eine Wirkung

## Diphenyl bis(hexaalanyl)silylester
[14]
  Wirkung auf Lymphome: zeigen eine Wirkung
[15]
  Wirkung gegen Hepatitis-Viren: zeigen eine Wirkung

## C[C@H](N)C(=O)N[C@@H](C)C(=O)N[C@@H](C)C(=O)N[C@@H](C)C(=O)O[Si](OC(=O)[C@H](C)NC(=O)[C@H](C)NC(=O)[C@H](C)NC(=O)[C@H](C)N)(c1ccccc1)c1ccccc1 [Diphenyl bis(tetraalanyl)silylester]
[14]
  Wirkung auf Lymphome: zeigen eine Wirkung
[15]
  Wirkung gegen Hepatitis-Viren: zeigen eine Wirkung
